Measured values as given in patent US10040781B2, “Tank-binding kinase inhibitor compounds” (Gilead Sciences, Inc., priority 2014, dated 2018).
Like-named read-outs stand apart in the source and are kept apart here.

What was measured:
IKKε = IKKε (Homo sapiens (Human), UniProt Q14164); assay: IKKε TR-FRET enzymatic assay; assay type: biochemical; details: read-out: IKKe IC50
hJAK2 = hJAK2 (Homo sapiens (Human), UniProt O60674); assay: hJAK2 LANCE TR-FRET enzymatic assay; assay type: biochemical; details: read-out: JAK2 IC50
Chain of hJAK2 (O60674 whole entry): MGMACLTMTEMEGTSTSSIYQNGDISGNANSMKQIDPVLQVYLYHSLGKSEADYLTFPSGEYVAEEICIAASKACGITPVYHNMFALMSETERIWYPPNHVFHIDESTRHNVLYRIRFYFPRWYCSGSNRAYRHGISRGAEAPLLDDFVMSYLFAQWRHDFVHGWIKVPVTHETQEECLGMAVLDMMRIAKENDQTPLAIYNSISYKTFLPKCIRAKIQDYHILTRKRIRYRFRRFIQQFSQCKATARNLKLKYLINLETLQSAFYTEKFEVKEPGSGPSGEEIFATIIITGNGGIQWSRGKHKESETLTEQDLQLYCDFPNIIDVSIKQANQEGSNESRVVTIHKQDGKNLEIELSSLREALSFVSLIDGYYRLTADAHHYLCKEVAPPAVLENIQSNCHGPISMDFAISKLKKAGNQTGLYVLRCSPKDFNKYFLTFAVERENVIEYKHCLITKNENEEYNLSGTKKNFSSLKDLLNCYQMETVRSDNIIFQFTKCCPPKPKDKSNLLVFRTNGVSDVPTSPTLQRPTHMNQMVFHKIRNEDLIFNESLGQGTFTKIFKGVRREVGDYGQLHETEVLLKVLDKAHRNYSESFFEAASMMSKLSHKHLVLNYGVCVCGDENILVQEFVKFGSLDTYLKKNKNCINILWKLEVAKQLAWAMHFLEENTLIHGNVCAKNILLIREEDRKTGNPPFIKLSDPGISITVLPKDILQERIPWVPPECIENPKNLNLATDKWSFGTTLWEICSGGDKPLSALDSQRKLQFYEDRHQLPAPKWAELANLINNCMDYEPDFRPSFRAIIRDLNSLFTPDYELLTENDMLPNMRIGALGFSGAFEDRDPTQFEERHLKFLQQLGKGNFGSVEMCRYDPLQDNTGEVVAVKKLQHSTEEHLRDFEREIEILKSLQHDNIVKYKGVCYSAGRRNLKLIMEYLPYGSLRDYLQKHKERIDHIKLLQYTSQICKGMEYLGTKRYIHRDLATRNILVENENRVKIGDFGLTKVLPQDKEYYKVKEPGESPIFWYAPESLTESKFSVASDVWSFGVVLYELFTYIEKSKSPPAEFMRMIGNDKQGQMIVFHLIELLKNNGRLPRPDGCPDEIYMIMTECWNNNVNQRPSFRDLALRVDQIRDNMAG

TBK1 = TBK1 (Homo sapiens (Human), UniProt Q9UHD2); assay: TBK1 TR-FRET enzymatic assay;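 further: phosphorylation of a biotinylated Ser/Thr peptide by purified full-length recombinant TBK1, read by TR-FRET after 240 min at 25 °C, IC50 is the geometric mean of at least four runs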
Chain of TBK1 (Q9UHD2 whole entry): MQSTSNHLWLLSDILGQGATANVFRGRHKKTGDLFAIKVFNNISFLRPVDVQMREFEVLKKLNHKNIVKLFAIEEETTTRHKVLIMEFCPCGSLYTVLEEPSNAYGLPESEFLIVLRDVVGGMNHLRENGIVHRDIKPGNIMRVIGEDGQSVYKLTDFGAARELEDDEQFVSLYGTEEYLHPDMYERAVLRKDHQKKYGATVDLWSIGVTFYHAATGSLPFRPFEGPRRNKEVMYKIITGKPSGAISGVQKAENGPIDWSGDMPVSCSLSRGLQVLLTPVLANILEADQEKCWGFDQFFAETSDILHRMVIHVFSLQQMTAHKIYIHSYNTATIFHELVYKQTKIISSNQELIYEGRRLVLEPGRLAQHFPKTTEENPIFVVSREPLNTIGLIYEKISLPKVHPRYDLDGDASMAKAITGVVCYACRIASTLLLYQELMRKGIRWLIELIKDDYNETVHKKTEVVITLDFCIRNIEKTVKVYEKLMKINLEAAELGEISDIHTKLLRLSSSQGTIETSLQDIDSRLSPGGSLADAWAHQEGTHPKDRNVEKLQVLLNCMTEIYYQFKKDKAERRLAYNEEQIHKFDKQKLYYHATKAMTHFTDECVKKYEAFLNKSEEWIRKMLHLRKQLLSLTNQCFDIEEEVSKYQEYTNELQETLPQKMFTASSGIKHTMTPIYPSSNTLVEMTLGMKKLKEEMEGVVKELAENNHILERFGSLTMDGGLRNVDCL

[1] = TR-FRET, 2×Km ATP, geometric mean of minimum four determinations

Chain of IKKε (Q14164 whole entry): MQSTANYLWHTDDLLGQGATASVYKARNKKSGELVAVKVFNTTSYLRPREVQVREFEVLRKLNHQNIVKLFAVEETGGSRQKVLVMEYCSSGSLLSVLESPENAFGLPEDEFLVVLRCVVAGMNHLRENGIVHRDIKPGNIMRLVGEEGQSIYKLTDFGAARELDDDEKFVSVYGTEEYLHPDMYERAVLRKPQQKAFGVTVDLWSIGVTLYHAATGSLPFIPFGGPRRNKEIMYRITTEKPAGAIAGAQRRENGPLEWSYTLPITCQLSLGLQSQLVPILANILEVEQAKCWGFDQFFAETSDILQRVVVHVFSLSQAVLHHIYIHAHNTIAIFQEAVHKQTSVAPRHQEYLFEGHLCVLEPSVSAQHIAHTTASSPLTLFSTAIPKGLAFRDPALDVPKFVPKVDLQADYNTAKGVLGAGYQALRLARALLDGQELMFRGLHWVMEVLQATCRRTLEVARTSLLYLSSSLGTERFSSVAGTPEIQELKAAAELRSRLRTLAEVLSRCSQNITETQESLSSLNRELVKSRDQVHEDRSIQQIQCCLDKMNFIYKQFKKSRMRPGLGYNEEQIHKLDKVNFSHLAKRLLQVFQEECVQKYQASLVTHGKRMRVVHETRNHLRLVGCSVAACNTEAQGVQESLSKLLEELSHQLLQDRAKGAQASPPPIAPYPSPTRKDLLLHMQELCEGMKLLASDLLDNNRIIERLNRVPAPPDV

Row | Structure (SMILES) | IC50 (IKKε) [µM] | IC50 (hJAK2) [µM] | IC50 (TBK1) [µM] | IC50 (IKKε; [1]) [µM]
1 | CN1CC[C@H](Oc2ccc(Nc3ncnc(-c4ccc(O[C@H]5CCN(C(=O)[C@@H](O)CO)C[C@H]5F)c(C#N)c4)n3)cc2)[C@H](F)C1 [Example 398, 2-(((3R,4S)-1-((S)-2,3-dihydroxypropanoyl)-3-fluoropiperidin-4-yl)oxy)-5-(4-((4-(((3R,4S)-3-fluoro-1-methylpiperidin-4-yl)oxy)phenyl)amino)-1,3,5-triazin-2-yl)benzonitrile] | 0.001 | 0.763 | 0.003 | –
2 | N#Cc1cc(-c2ncnc(Nc3ccc(N4CCN(C5COC5)CC4)cc3)n2)ccc1O[C@H]1CCN(C(=O)[C@@H]2CSC(=O)N2)CC1(F)F [Example 520, 2-(((S)-3,3-difluoro-1-((R)-2-oxothiazolidine-4-carbonyl)piperidin-4-yl)oxy)-5-(4-((4-(4-(oxetan-3-yl)piperazin-1-yl)phenyl)amino)-1,3,5-triazin-2-yl)benzonitrile] | – | 0.177 | 0.002 | 0.001
3 | N#Cc1cc(-c2ncnc(Nc3ccc(N4CCOCC4)cc3)n2)ccc1O[C@H]1CCN(C(=O)[C@@H](O)CO)C[C@H]1F [Example 555, 2-(((3R,4S)-1-((S)-2,3-dihydroxypropanoyl)-3-fluoropiperidin-4-yl)oxy)-5-(4-((4-morpholinophenyl)amino)-1,3,5-triazin-2-yl)benzonitrile] | – | 0.732 | 0.004 | 0.001
4 | C[C@H](O)C(=O)N1CC[C@H](Oc2ccc(-c3ncnc(Nc4ccc(C(C)(C)O)nc4)n3)cc2C#N)[C@H](F)C1 [Example 382, 2-(((3R,4S)-3-fluoro-1-((S)-2-hydroxypropanoyl)piperidin-4-yl)oxy)-5-(4-((6-(2-hydroxypropan-2-yl)pyridin-3-yl)amino)-1,3,5-triazin-2-yl)benzonitrile] | 0.003 | ≥ 1 | 0.003 | –
5 | C[C@H](O)C(=O)N1CC[C@H](Oc2ccc(-c3ncnc(Nc4ccc(N5CCN(C6COC6)[C@H](C)C5)cc4)n3)cc2C#N)C(F)(F)C1 [Example 246, 2-(((S)-3,3-difluoro-1-((S)-2-hydroxypropanoyl)piperidin-4-yl)oxy)-5-(4-((4-((R)-3-methyl-4-(oxetan-3-yl)piperazin-1-yl)phenyl)amino)-1,3,5-triazin-2-yl)benzonitrile] | 0.001 | 0.181 | 0.002 | –
6 | N#Cc1cc(-c2ncnc(Nc3ccc(N4CC(O)C4)nc3)n2)ccc1OC1CCOCC1 [Example 287, 5-(4-((6-(3-hydroxyazetidin-1-yl)pyridin-3-yl)amino)-1,3,5-triazin-2-yl)-2-((tetrahydro-2H-pyran-4-yl)oxy)benzonitrile] | 0.02 | ≥ 1 | 0.015 | –
7 | Cc1nn(C)c2cc(Nc3ncnc(-c4ccc(O[C@H]5CCN(C(=O)CO)C[C@H]5F)c(C#N)c4)n3)ccc12 [Example 346, 5-(4-((1,3-dimethyl-1H-indazol-6-yl)amino)-1,3,5-triazin-2-yl)-2-(((3R,4S)-3-fluoro-1-(2-hydroxyacetyl)piperidin-4-yl)oxy)benzonitrile] | 0.001 | 0.511 | 0.003 | –
8 | Cc1cc(Nc2ncnc(-c3ccc(O[C@H]4CCN(C(=O)[C@H](C)O)C[C@H]4F)c(C#N)c3)n2)ccc1N1CCN(C2COC2)CC1 [Example 396, 2-(((3R,4S)-3-fluoro-1-((S)-2-hydroxypropanoyl)piperidin-4-yl)oxy)-5-(4-((3-methyl-4-(4-(oxetan-3-yl)piperazin-1-yl)phenyl)amino)-1,3,5-triazin-2-yl)benzonitrile] | 0.001 | 0.137 | 0.002 | –
9 | N#Cc1cc(-c2ncnc(Nc3ccc(N4CCN(C5COC5)CC4)cc3)n2)ccc1O[C@H]1CCN(C(=O)c2coc(=O)[nH]2)C[C@H]1F [Example 525, 2-(((3R,4S)-3-fluoro-1-(2-oxo-2,3-dihydrooxazole-4-carbonyl)piperidin-4-yl)oxy)-5-(4-((4-(4-(oxetan-3-yl)piperazin-1-yl)phenyl)amino)-1,3,5-triazin-2-yl)benzonitrile] | – | 0.39 | 0.003 | 0.003
10 | Cn1cc(Nc2ncnc(-c3ccc(OC4CCOCC4)c(C#N)c3)n2)cn1 [Example 9, 5-(4-((1-methyl-1H-pyrazol-4-yl)amino)-1,3,5-triazin-2-yl)-2-((tetrahydro-2H-pyran-4-yl)oxy)benzonitrile] | 0.007 | 0.363 | 0.003 | –
11 | CC(=O)N1CCN(c2ccc(Nc3ncnc(-c4ccc(OC5CCOCC5)c(C#N)c4)n3)cc2)CC1 [Example 11, 5-(4-((4-(4-acetylpiperazin-1-yl)phenyl)amino)-1,3,5-triazin-2-yl)-2-((tetrahydro-2H-pyran-4-yl)oxy)benzonitrile] | 0.004 | 0.224 | 0.001 | –
12 | CS(=O)(=O)N1CCN(c2ccc(Nc3ncnc(-c4ccc(OC5CCOCC5)c(C#N)c4)n3)cc2)CC1 [Example 66, 5-(4-((4-(4-(methylsulfonyl)piperazin-1-yl)phenyl)amino)-1,3,5-triazin-2-yl)-2-((tetrahydro-2H-pyran-4-yl)oxy)benzonitrile] | 0.005 | 0.345 | 0.002 | –
13 | C[C@H](O)C(=O)N1CC[C@H](Oc2ccc(-c3ncnc(Nc4ccc(-c5ccn(C)c(=O)c5)cc4)n3)cc2C#N)[C@H](F)C1 [Example 476, 2-(((3R,4S)-3-fluoro-1-((S)-2-hydroxypropanoyl)piperidin-4-yl)oxy)-5-(4-((4-(1-methyl-2-oxo-1,2-dihydropyridin-4-yl)phenyl)amino)-1,3,5-triazin-2-yl)benzonitrile] | – | ≥ 1 | 0.003 | 0.003
14 | C[C@H](O)C(=O)N1CC[C@H](Oc2ccc(-c3ncnc(Nc4ccc(N5CCN(C6COC6)[C@@H](C)C5)cc4)n3)cc2C#N)C(F)(F)C1 [Example 262, 2-(((S)-3,3-difluoro-1-((S)-2-hydroxypropanoyl)piperidin-4-yl)oxy)-5-(4-((4-((S)-3-methyl-4-(oxetan-3-yl)piperazin-1-yl)phenyl)amino)-1,3,5-triazin-2-yl)benzonitrile] | 0.001 | 0.156 | 0.002 | –

Other lines, results leading:

Row | IC50 (IKKε) [µM] | IC50 (hJAK2) [µM] | IC50 (TBK1) [µM] | IC50 (IKKε; [1]) [µM] | Structure (SMILES)
15 | 0.015 | 0.336 | 0.005 | – | N#Cc1cc(-c2ncnc(Nc3ccc(N4CCN(C5COC5)CC4)cc3)n2)ccc1N1CCCC1 [Example 10, 5-(4-((4-(4-(oxetan-3-yl)piperazin-1-yl)phenyl)amino)-1,3,5-triazin-2-yl)-2-(pyrrolidin-1-yl)benzonitrile]
16 | 0.068 | 0.488 | 0.018 | – | C[C@H]1C[C@H](Oc2ccc(-c3ncnc(Nc4ccc(N5CCN(C6COC6)CC5)cc4)n3)cc2C#N)CCN1C(=O)CO [Example 221, 2-(((2S,4R)-1-(2-hydroxyacetyl)-2-methylpiperidin-4-yl)oxy)-5-(4-((4-(4-(oxetan-3-yl)piperazin-1-yl)phenyl)amino)-1,3,5-triazin-2-yl)benzonitrile]
17 | – | 0.153 | 0.048 | 0.033 | N#Cc1cc(-c2ncnc(Nc3ccc(N4CCN(C5COC5)CC4)cc3)n2)ccc1OC1CNC(=O)C(F)(F)C1 (stereo not drawn) [Example 446, 2-((5,5-difluoro-6-oxopiperidin-3-yl)oxy)-5-(4-((4-(4-(oxetan-3-yl)piperazin-1-yl)phenyl)amino)-1,3,5-triazin-2-yl)benzonitrile]
18 | – | ≥ 1 | 0.076 | 0.283 | C[C@@H](N)C(=O)N1CC[C@H](Oc2ccc(-c3ncnc(Nc4ccc(N5CCN(C6COC6)CC5)cc4)n3)cc2C#N)[C@H](F)C1 [Example 433, 2-(((3R,4S)-1-((R)-2-aminopropanoyl)-3-fluoropiperidin-4-yl)oxy)-5-(4-((4-(4-(oxetan-3-yl)piperazin-1-yl)phenyl)amino)-1,3,5-triazin-2-yl)benzonitrile]
19 | – | ≥ 1 | 0.264 | 0.403 | CN1CCC(COc2ccc(-c3ncnc(Nc4ccc(N5CCN(C6COC6)CC5)cc4)n3)cc2C#N)CC1=O (stereo not drawn) [Example 596, 2-((1-methyl-2-oxopiperidin-4-yl)methoxy)-5-(4-((4-(4-(oxetan-3-yl)piperazin-1-yl)phenyl)amino)-1,3,5-triazin-2-yl)benzonitrile]
20 | – | ≥ 1 | 0.004 | 0.005 | N#Cc1cc(-c2ncnc(Nc3ccc(N4CCN(C5COC5)CC4)cc3)n2)ccc1O[C@H]1CCN(C(=O)[C@@H]2CCCO2)C[C@H]1F [Example 504, 2-(((3R,4S)-3-fluoro-1-((S)-tetrahydrofuran-2-carbonyl)piperidin-4-yl)oxy)-5-(4-((4-(4-(oxetan-3-yl)piperazin-1-yl)phenyl)amino)-1,3,5-triazin-2-yl)benzonitrile]
21 | 0.014 | 0.98 | 0.004 | – | N#Cc1cc(-c2ncnc(Nc3ccc(N4CCN(C5COC5)CC4)cc3)n2)ccc1OC1CCCCC1 [Example 217, 2-(cyclohexyloxy)-5-(4-((4-(4-(oxetan-3-yl)piperazin-1-yl)phenyl)amino)-1,3,5-triazin-2-yl)benzonitrile]
22 | 0.619 | ≥ 1 | 0.126 | – | N#Cc1cc(-c2ncnc(Nc3ccc(N4CCN(C5COC5)CC4)cc3)n2)ccc1OCCNC(N)=O [Example 602, 1-(2-(2-cyano-4-(4-((4-(4-(oxetan-3-yl)piperazin-1-yl)phenyl)amino)-1,3,5-triazin-2-yl)phenoxy)ethyl)urea]
23 | 0.071 | 0.354 | 0.026 | – | N#Cc1cc(-c2ncnc(Nc3ccc(N4CCN(C5COC5)CC4)cc3)n2)ccc1N1CC2(CCO2)C1 [Example 210, 5-(4-((4-(4-(oxetan-3-yl)piperazin-1-yl)phenyl)amino)-1,3,5-triazin-2-yl)-2-(1-oxa-6-azaspiro[3.3]heptan-6-yl)benzonitrile]
